For data set [1], the system named is TNF-α induced IL-6. Kind of data set: TNF-α-induced IL-6 production determined by IL-6 ELISA. Type of data set: cell-based. The note with it: for % IL6 production compare to TNF stimulation of IL6 (100%), HAEC, IL6, @ 5 uM: TNF stimulated, compound 5 uM (bracketed value). In outline:
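Human aortic endothelial cells grown to ≥90% confluence, then treated with compounds and stimuli in serum-free medium with 0.2% albumin. Secreted IL-6 in collected media measured by sandwich ELISA (2 ug/ml capture, 200 ng/ml biotinylated detection antibody, streptavidin-HRP), read at 450 nm.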
(An ELISA detects its analyte on a solid surface through an enzyme-linked reagent.)

For data set [2], the system named is Human aortic smooth muscle cells. Description: Smooth muscle cell proliferation assay / anti-proliferation assay (perlecan). The note with it: for Proliferation Data (result in words): screens at 5 & 10 uM; for activity in anti-proliferation assay (Perlecan), in words: using the same activity scale used in Table 3.
Experimental: Human aortic smooth muscle cells (Clonetics) were used. Cells were grown in basal medium containing 5% fetal bovine serum supplemented with growth factors, basic fibroblast growth factor, epidermal growth factor and insulin. […] The cells were then serum starved for 24 h to induce quiescence. Fresh growth medium containing no compound or 10 μM compound was then added and further incubated for 24 h. Cell number was determined by using a cell proliferation assay kit (Celltiter96 AQueous from Promega).
In data set [3] the test system is cells. Description: Cytotoxicity/Lactate Dehydrogenase assay. Type of data set: cell-based. The note with it: toxic or cause cell death; concentrations (uM) given. The procedure:
An appropriate number of cells are plated in four 96-well plates, one plate for “day 0” and three plates for days 1-3. Cells are treated with at least one compound of the present invention in varying concentrations with and without the apoptosis inducer cisplatin (2 μM) (“+cis” or “-cis”). Unteated cells are also assayed with and without cisplatin. After transfection, the plates are incubated at 37° C. overnight.
An appropriate number of cells are plated in four 96-well plates, one plate for “day 0” and three plates for days 1-3. Cells are treated with at least one compound of the present invention in varying concentrations. The negative control cells have normal media conditions, a duplicate set of wells is treated with the composition in which the compound is provided, but there is no added compound and the positive control cells are treated with the apoptosis inducer cisplatin (2 μM). All of the cells are transfected with a vector having a promoter that is responsive to apoptosis conditions. When apoptosis occurs, the promoter is turned on and the lactic dehydrogenase gene is activated and the enzyme protein is made and active. Activity is easily detected with a color change. After transfection, the plates are incubated at 37° C. overnight.
About 8 mls of warmed alpha MEM LDH lysis buffer (2% Triton X100) and about 8 mls of culture media (1/2 dilution) are combined. Two 96-well v-bottom plates are prepared, one labeled “lysis” and one labeled “supernatant.” To lyse the cells, about 200 μl Alpha MEM lysis buffer (diluted 1/2) is added to one test plate from which the supernatant has been removed and added to the plate labeled supernatant. After mixing, about 200 μl of lysed cells are transferred to the lysis plate. Both the lysis and supernatant plates are centrifuged at about 1600 rpm for about 10 min. After centrifugation, about 100 μl of both the supernatant or lysate is transferred to corresponding 96-well flat-bottomed plates.
The assay for cytotoxicity uses the Cytotoxicity Detection Kit (LDH) from Roche Diagnostics Corp. (Indianapolis, Ind.). Using the directions provided, the dye solution is mixed and added each well of the lysate and supernatant plate and incubated for up to 20-25 min at 15-25° C. in the dark.

Where [4] appears, read: Homo sapiens, 24 h, Table 5, first part, class = % of control IL6 production, read-out: Inhibition of TNF-induced IL6 production.
[5] abbreviates: Homo sapiens, read-out: Activity (note 1), anti-proliferation assay (perlecan).
[6] abbreviates: Homo sapiens, read-out: Avg IC-50, anti-proliferation assay (perlecan).
The mark [7] stands for this setting: Homo sapiens, 24 h, Table 5, second part, column 1, class = % of control IL6 production, read-out: Inhibition of TNF-induced IL6, production.

pIC50: −log10 of the molar value. Structures can show the parent of a compound that is named as a salt. Where two headings read alike, the source gives them in different places.

A word on the inhibition: it is the drop in the measured response relative to a control, in per cent.

Turning to `CCN1CCC[C@H]1CNc1nc(Nc2ccc(OC)c(F)c2)nc(NC2CCCCCC2)n1` [Compound 139, N^2-cycloheptyl-N^4-((S)-1-ethyl-pyrrolidin-2-ylmethyl)-N^6-(3-fluoro-4-methoxyphenyl)-1,3,5-triazine-2,4,6-triamine], in data set [1] (setting [4]), the activity at 10 µM fell in the range of 0 to 25%. Moreover, the results for the pIC50 in data set [2] (setting [5]) and in data set [2] (setting [6]) were 5.15 to 5.52 and 5.30 to 5.40, respectively.
In the case of `CCN1CCCC1CNc1nc(Nc2ccc(Cl)c(Cl)c2)nc(NC2CCCCCC2)n1` (stereo not drawn) [Compound 7, N^2-cycloheptyl-N^4-(3,4-dichlorophenyl)-N^6-[(1-ethyl-2-pyrrolidinyl)methyl]-1,3,5-triazine-2,4,6-triamine], the Toxicity result in data set [3] is listed as “toxic”.
Regarding `COc1ccc(Nc2nc(NC3CCCCCC3)nc(OC3CCCN(C(C)=O)C3)n2)cc1Cl` (stereo not drawn) [drawing 1597], the “Inflammation Data, inhibition at 10 uM” value in data set [1] (10 uM) is “complete inhibition at 10 uM”. Moreover, the “Proliferation Data (result in words)” value in data set [2] is “Not active at 5 & 10 uM”.
Take `COc1ccc(Nc2nc(NC3CCCCCC3)nc(N3CCCC3CO)n2)cc1Cl` (stereo not drawn): the “Inflammation Data (result in words)” value in data set [1] (concentration not given) was “Not Active”. For the same compound, in data set [2], the “Proliferation Data, cell morphology (rounding, blunting, morphology change)” value was “rounding” and the “Proliferation Data (result in words)” value is given as “Did not pass 5 & 10 uMscreens”.
For the compound `COc1ccc(Nc2nc(NC3CCCCCC3)nc(N(C)C3CCN(C)CC3)n2)cc1F` [Compound 167, N^2-cycloheptyl-N^4-(3-fluoro-4-methoxy-phenyl)-N^6-methyl-N^6-(1-methyl-piperidin-4-yl)-1,3,5-triazine-2,4,6-triamine maleate salt], the “% IL6 production compare to TNF stimulation of IL6 (100%), HAEC, IL6, @ 5 uM” value in data set [1] (HAEC, maleate salt) is 25%. In addition, the pIC50 in data set [2] (read-out: Activity (note 1), anti-proliferation assay (perlecan), maleate salt) is below 5.15.
Consider `COc1ccc(Nc2nc(NC3CCCCCC3)nc(N(C)C3CCN(C)CC3)n2)cc1F` [N^2-cycloheptyl-N^4-(3-fluoro-4-methoxyphenyl)-N^6-methyl-N^6-(1-methyl-piperidin-4-yl)-1,3,5-triazine-2,4,6-triamine], for which, in data set [2], the “activity in anti-proliferation assay (Perlecan), in words” value is “medium or moderate activity”.
For `CCN1CCC[C@@H]1CNc1nc(Nc2ccc(OC)c(F)c2)nc(NC2CCCCCC2)n1` [Compound 140, N^2-cycloheptyl-N^4-((R)-1-ethyl-pyrrolidin-2-ylmethyl)-N^6-(3-fluoro-4-methoxyphenyl)-1,3,5-triazine-2,4,6-triamine], the “% IL6 production compare to TNF stimulation of IL6 (100%), Compds tested @ 10 uM HAEC, IL6” value in data set [1] (HAEC, 10 uM compound, TNF stimulation = 100%) is recorded as 12.57%. The activity at 10 µM in data set [1] (setting [4]) was in the range of 0 to 25%. Also, the pIC50 in data set [2] (setting [5]) was 5.15 to 5.52; in data set [2] (setting [6]), 5.30 to 5.40.
Take `COc1ccc(Nc2nc(NC3CCCCCC3)nc(N3CCN(C)CC3)n2)cc1Cl`: in data set [1] (5 uM), the “Inflammation Data, activity in words at 5 uM” value is given as “not active” and the “Inflammation Data, cell death at 5 uM” value is given as 25%. For the same compound, the “Inflammation Data, cell death at 10 uM” value in data set [1] (10 uM) is on record as “total cell death”. For the same compound, in data set [2], the “Proliferation Data, cell morphology (rounding, blunting, morphology change)” value is given as “blunting androunding” and the “Proliferation Data (result in words)” value is “Did not pass 5 & 10 uMscreens”.
Turning to `COc1ccc(Nc2nc(NC3CCCCCC3)nc(NC3CCN(Cc4ccccc4)CC3)n2)cc1F`, in data set [1] (5 uM), the “Inflammation Data, cell death at 5 uM” value is 25%. The “Inflammation Data, cell death at 10 uM” value in data set [1] (10 uM) is “total cell death”. Also, in data set [2], the “Proliferation Data, cell morphology (rounding, blunting, morphology change)” value was “cell bluntingat 3 uM and rounding at 5 uM”.
`CCc1occc(=O)c1Oc1nc(Nc2ccc(OC)c(Cl)c2)nc(NC2CCCCCC2)n1`: the “Inflammation Data, cell death at 10 uM” value in data set [1] (10 uM) is 20%. Also, in data set [2], the “Proliferation Data (result in words)” value is reported as “Not active at 5 & 10 uM”.
Turning to `COc1ccc(Nc2nc(NC3CCCCCC3)nc(NC3CCN(Cc4ccccc4)CC3)n2)cc1Cl` [drawing 1615], in data set [1] (5 uM), the “Inflammation Data, cell death at 5 uM” value was found to be 20%. For the same compound, the “Inflammation Data, cell death at 10 uM” value in data set [1] (10 uM) is listed as above 50%. The “Proliferation Data, cell morphology (rounding, blunting, morphology change)” value in data set [2] is “cell blunting at 1 uMand rounding at 5 uM”.
With `COc1ccc(Nc2nc(NC3CCCCCC3)nc(OCC3CCCN3)n2)cc1Cl` (stereo not drawn) [drawing 1599], the “Proliferation Data (result in words)” value in data set [2] is reported as “Not active at 5 & 10 uM”.
For the compound `COc1ccc(Nc2nc(NC3CCCCCC3)nc(OC3CCN(C)CC3)n2)cc1Cl`, the “Inflammation Data, cell death at 10 uM” value in data set [1] (10 uM) was “total cell death”. Moreover, the “Proliferation Data, cell morphology (rounding, blunting, morphology change)” value in data set [2] is on record as “rounding at 5 & 10 uM”.
Take `COc1ccc(Nc2nc(NC3CCCCCC3)nc(N(C)C3CCN(C)CC3)n2)cc1Br` [Compound 123, N-(3-Bromo-4-methoxy-phenyl)-N′-cycloheptyl-N″-methyl-N″-(1-methyl-piperidin-4-yl)-[1,3,5]triazine-2,4,6-triamine]: the pIC50 in data set [2] (setting [5]) is below 5.15.
On to `CN1CCC(N(C)c2nc(Nc3ccc4ccccc4c3)nc(NC3CCCCCC3)n2)CC1` [N^2-cycloheptyl-N^4-methyl-N^4-(1-methyl-piperidin-4-yl)-N^6-naphthalen-2-yl-1,3,5-triazine-2,4,6-triamine], for which the “activity in anti-proliferation assay (Perlecan), in words” value in data set [2] is given as “high activity”.
Consider `COc1ccc(Nc2nc(NC3CCCCCC3)nc(N3CCCC4CCCCC43)n2)cc1F` (stereo not drawn) [Compound 84, N^2-cycloheptyl-N^4-(3-fluoro-4-methoxyphenyl)-6-octahydro-1(2H)-quinolinyl-1,3,5-triazine-2,4-diamine], for which the activity at 10 µM in data set [1] (setting [4]) is 25 to 50%.
As for `COc1ccc(Nc2nc(NC3CCCCCC3)nc(N3CCN(CC(=O)N4CCCC4)CC3)n2)cc1F` [Compound 94, N^2-cycloheptyl-N^4-(3-fluoro-4-methoxyphenyl)-6-{4-[2-oxo-(1-pyrrolidinyl)ethyl]-1-piperazinyl}-1,3,5-triazine-2,4-diamine], the values for the activity at 10 µM in data set [1] (setting [4]) and in data set [1] (setting [7]) were 25 to 50% and 0 to 25%, respectively.
For the compound `CCN1CCCC1CNc1nc(Nc2ccc(C#N)cc2)nc(NC2CCCCCC2)n1` (stereo not drawn) [Compound 11, 4-[(4-(cycloheptylamino)-6-{[(1-ethyl-2-pyrrolidinyl)methyl]amino}-1,3,5-triazin-2-yl)-amino]benzonitrile], the activity at 10 µM in data set [1] (setting [7]) lay in the range of 0 to 25%.
On to `CCN1CCCC1CNc1nc(NCc2ccco2)nc(Nc2ccc(OC)c(F)c2)n1` (stereo not drawn) [Compound 66, N^2-[(1-ethyl-2-pyrrolidinyl)methyl]-N^4-(3-fluoro-4-methoxyphenyl)-N^6-(2-furylmethyl)-1,3,5-triazine-2,4,6-triamine], for which the activity at 10 µM in data set [1] (setting [4]) and in data set [1] (setting [7]) was 0 to 25% in each case.
In the case of `CN(c1nc(Nc2ccc(O)cc2)nc(NC2CCCCCC2)n1)C1CCNCC1`, the inhibition at 5 µM in data set [1] (Homo sapiens, read-out: Inflammation Data, inhibition at 5 uM) stood at 50%. The “Inflammation Data, cell death at 5 uM” value in data set [1] (human, 24 h, 5 µM) is listed as 20%. The “Inflammation Data, cell death at 10 uM” value in data set [1] (human, 24 h, 10 µM) is recorded as “total cell death”.
Regarding `CCN1CCCC1CNc1nc(NC2CCCCCC2)nc(N(C)c2ccc(Cl)cc2)n1` (stereo not drawn) [Compound 40, N^2-(4-chlorophenyl)-N^4-cycloheptyl-N^6-[(1-ethyl-2-pyrrolidinyl)methyl]-N^2-methyl-1,3,5-triazine-2,4,6-triamine], the activity at 10 µM in data set [1] (setting [7]) is 0 to 25%.
For the compound `COc1ccc(Nc2nc(NC3CCCCCC3)nc(N(C)C3CCN(C)CC3)n2)cc1F` [Compound 169, N^2-cycloheptyl-N^4-(3-fluoro-4-methoxy-phenyl)-N^6-methyl-N^6-(1-methyl-piperidin-4-yl)-1,3,5-triazine-2,4,6-triamine succinate salt], the “% IL6 production compare to TNF stimulation of IL6 (100%), HAEC, IL6, @ 5 uM” value in data set [1] (HAEC, succinate salt) is listed as 45%.
With `COc1ccc(Nc2nc(NC3CCCCCC3)nc(N(C)C3CCN(C)CC3)n2)cc1F` [Compound 160, N^2-cycloheptyl-N^4-(3-fluoro-4-methoxyphenyl)-N^6-methyl-N^6-(1-methyl-piperidin-4-yl)-1,3,5-triazine-2,4,6-triamine, hydrogen chloride salt], the activity at 10 µM in data set [1] (Homo sapiens, 24 h, read-out: % IL6 production compare to TNF stimulation of IL6 (100%), Compds tested @ 10 uM HAEC, IL6) was 1%; in data set [1] (Homo sapiens, 24 h, read-out: Inhibition of TNF-induced IL6 production), 0 to 25%. Further, the pIC50 was 5.15 to 5.52 in data set [2] (read-out: Activity (note 1), anti-proliferation assay (perlecan)) and 5.30 to 5.40 in data set [2] (read-out: Avg IC-50, anti-proliferation assay (perlecan)).
On to `CCN1CCCC1CNc1nc(Nc2ccc(OC)c(F)c2)nc(NC(C)(C)C)n1` (stereo not drawn) [Compound 52, N^2-(tert-butyl)-N^4-[(1-ethyl-2-pyrrolidinyl)methyl]-N^6-(3-fluoro-4-methoxyphenyl)-1,3,5-triazine-2,4,6-triamine], for which the activity at 10 µM in data set [1] (setting [4]) lay in the range of 0 to 25%; in data set [1] (setting [7]) it was 25 to 50%.

Values taken from US7332489B2, “Methods and compositions of novel triazine compounds” (Reddy US Therapeutics, Inc., priority 2003, dated 2008).
